Reference: paper PMC12698182, “Bardoxolone methyl blocks the efflux of Zn^2+ by targeting hZnT1 to inhibit the proliferation and metastasis of cervical cancer” (Protein & Cell, 2025)
Residue numbers refer to the chain shown, from its start.

What was measured:
[1] = target: T1, hZnT1 (Homo sapiens, UniProt Q9Y6M5, I96A); experiment: biolayer interferometry (BLI); settings: read-out: binding affinity
T1 construct: gene SLC30A1; homodimer (ECD 271-312, CTD 345-507 visible); tags and borders only in supplement; transport assay in HEK-293F cells
T1 sequence (Q9Y6M5 1-507 I96A): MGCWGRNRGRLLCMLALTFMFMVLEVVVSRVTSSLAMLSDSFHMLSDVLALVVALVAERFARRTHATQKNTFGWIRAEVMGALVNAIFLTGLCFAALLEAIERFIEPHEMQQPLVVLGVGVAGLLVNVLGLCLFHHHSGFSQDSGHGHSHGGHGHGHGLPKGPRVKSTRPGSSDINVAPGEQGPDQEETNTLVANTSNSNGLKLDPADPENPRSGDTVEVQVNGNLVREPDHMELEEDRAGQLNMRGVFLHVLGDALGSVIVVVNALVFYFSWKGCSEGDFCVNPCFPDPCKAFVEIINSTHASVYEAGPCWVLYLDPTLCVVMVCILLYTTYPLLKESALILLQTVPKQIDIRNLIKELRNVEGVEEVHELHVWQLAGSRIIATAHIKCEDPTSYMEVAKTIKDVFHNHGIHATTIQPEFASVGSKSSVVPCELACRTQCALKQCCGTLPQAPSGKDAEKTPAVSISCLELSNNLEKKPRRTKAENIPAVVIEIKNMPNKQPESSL

[2] = target: T2, hZnT1 (Homo sapiens, UniProt Q9Y6M5, G258A); experiment: biolayer interferometry (BLI); type: binding
T2 construct: gene SLC30A1; homodimer (ECD 271-312, CTD 345-507 visible); tags and borders only in supplement; transport assay in HEK-293F cells
T2 sequence (Q9Y6M5 1-507 G258A): T1 sequence (Q9Y6M5 1-507 I96A) with A96I, G258A

[3] = target: T3, hZnT1 (Homo sapiens, UniProt Q9Y6M5); experiment: FluoZin-3 fluorescence Zn2+ transport assay in HEK-293F cells; type: cell-based
T3 construct: gene SLC30A1; homodimer (ECD 271-312, CTD 345-507 visible); tags and borders only in supplement; transport assay in HEK-293F cells
T3 sequence (Q9Y6M5 1-507): T1 sequence (Q9Y6M5 1-507 I96A) with A96I

[4] = target: T3, hZnT1; experiment: biolayer interferometry (BLI); settings: read-out: binding affinity

COC(=O)[C@]12CCC(C)(C)C[C@H]1[C@H]1C(=O)C=C3[C@@]4(C)C=C(C#N)C(=O)C(C)(C)[C@@H]4CC[C@@]3(C)[C@]1(C)CC2 [Bardoxolone methyl]
Kd [1]: 58.4 µM | binding affinity [2]: the mutation of G258A directly led to the affinity to be completely undetectable | IC50 [3]: 18 ± 0.92 µM | Kd [4]: 2.72 µM
